Measurements taken from patent publication US20250230147A1, “LACTAMS AS CBL-B INHIBITORS” (Genentech, Inc., priority 2021, published 2025).
Structures can show the parent of a compound that is named as a salt.

Experiments:
c-Cbl = c-Cbl (Homo sapiens (Human), UniProt P22681); assay: C-Cbl LCK Ub TR-FRET assay (c-cbl Lck HTRF); assay type: biochemical; settings: for (fold-selectivity): C-cbl Lck HTRF IC50 relative to Cbl-b Lck HTRF IC50
Summary of the method: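 Signal is read once the detection mix has stood 20 min at ambient temperature. Curves are anchored by DMSO as maximum and by omission of LCK as minimum.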

Cbl-b = Cbl-b (Homo sapiens (Human), UniProt Q13191); assay: Cbl-b LCK Ub TR-FRET assay (Cbl-b Lck HTRF); assay type: biochemical
Summary of the method: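 Biotin-Cbl-b preincubated with compound (10-point 3-fold series) 60 min, then His-LCK with 1 mM ATP (2× mixture) added for 90 min at room temperature. Ubiquitination detected by TR-FRET using HA-ubiquitin/UBE2D2 adduct, anti-HA-D2 and streptavidin-Eu; IC50 normalised to no-LCK and DMSO controls.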

Sequence of Cbl-b (Q13191 40-426): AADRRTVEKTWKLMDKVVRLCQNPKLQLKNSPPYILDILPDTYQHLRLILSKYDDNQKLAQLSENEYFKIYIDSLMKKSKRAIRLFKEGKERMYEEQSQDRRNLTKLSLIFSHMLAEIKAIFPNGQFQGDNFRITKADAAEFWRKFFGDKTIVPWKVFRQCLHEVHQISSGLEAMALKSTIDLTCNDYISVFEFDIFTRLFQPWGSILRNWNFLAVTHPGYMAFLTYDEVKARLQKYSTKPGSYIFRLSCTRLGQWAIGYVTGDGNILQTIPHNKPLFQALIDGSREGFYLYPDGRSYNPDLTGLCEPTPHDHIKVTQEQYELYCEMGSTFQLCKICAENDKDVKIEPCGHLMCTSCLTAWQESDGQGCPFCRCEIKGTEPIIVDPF
Sequence of c-Cbl (P22681 47-435): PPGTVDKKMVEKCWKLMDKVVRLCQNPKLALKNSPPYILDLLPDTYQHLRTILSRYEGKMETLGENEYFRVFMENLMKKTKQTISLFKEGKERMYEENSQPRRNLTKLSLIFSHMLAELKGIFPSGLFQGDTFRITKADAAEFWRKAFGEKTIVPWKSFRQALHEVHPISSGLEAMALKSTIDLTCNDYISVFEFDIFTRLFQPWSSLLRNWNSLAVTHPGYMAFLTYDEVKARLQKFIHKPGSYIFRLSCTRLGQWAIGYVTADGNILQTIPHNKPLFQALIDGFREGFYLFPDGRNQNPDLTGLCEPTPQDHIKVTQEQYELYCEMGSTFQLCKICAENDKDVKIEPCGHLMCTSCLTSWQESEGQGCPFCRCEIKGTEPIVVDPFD

Row | SMILES | IC50 (c-Cbl) | IC50 (Cbl-b) | (fold-selectivity) (c-Cbl)
1 | CNc1cc(C2(Cc3nncn3C)CCC2)cc(N2Cc3c(cc(CNC4(C)CCC4)cc3C(F)(F)F)C2=O)n1 [Compound 310, 2-(4-(1-((4-methyl-4H-1,2,4-triazol-3-yl)methyl)cyclobutyl)-6-(methylamino)pyridin-2-yl)-6-(((1-methylcyclobutyl)amino)methyl)-4-(trifluoromethyl)isoindolin-1-one formate] | 11 nM | 10 nM | –
2 | CC(=O)N1CCN(Cc2cc3c(c(C(F)(F)F)c2)CN(c2cccc(C4([C@H](F)c5nncn5C)COC4)c2)C3=O)[C@@H](C(C)C)C1 [Compound 194, 6-(((S)-4-acetyl-2-isopropylpiperazin-1-yl)methyl)-2-(3-(3-((S)-fluoro(4-methyl-4H-1,2,4-triazol-3-yl)methyl)oxetan-3-yl)phenyl)-4-(trifluoromethyl)isoindolin-1-one] | 810 nM | 270 nM | 3.0x
3 | Cn1cnnc1[C@@H](F)C1(c2cccc(N3Cc4c(cc(CN5CCC[C@@H](CO)C5)cc4C(F)(F)F)C3=O)c2)COC1 [Compound 152, 2-(3-(3-((S)-fluoro(4-methyl-4R-1,2,4-triazol-3-yl)methyl)oxetan-3-yl)phenyl)-6-(((R)-3-(hydroxymethyl)piperidin-1-yl)methyl)-4-(trifluoromethyl)isoindolin-1-one] | 280 nM | 220 nM | 1.3x
4 | Cn1cnnc1[C@H](F)C1(c2cccc(N3Cc4c(cc(CN5CCC[C@@H]5CO)cc4C(F)(F)F)C3=O)c2)COC1 [Compound 147, 2-(3-(3-((R)-fluoro(4-methyl-4H-1,2,4-triazol-3-yl)methyl)oxetan-3-yl)phenyl)-6-(((R)-2-(hydroxymethyl)pyrrolidin-1-yl)methyl)-4-(trifluoromethyl)isoindolin-1-one] | 190 nM | 150 nM | 1.3x
5 | Cc1ccn(CC2(c3cccc(N4Cc5c(cc(CN6CCN(C)C[C@@H]6C(C)C)cc5C(F)(F)F)C4=O)c3)COC2)n1 [Compound 264, (S)-6-((2-isopropyl-4-methylpiperazin-1-yl)methyl)-2-(3-(3-((3-methyl-1H-pyrazol-1-yl)methyl)oxetan-3-yl)phenyl)-4-(trifluoromethyl)isoindolin-1-one] | 11000 nM | 7100 nM | (1.5x)
6 | Cn1cnnc1CC1(c2cc(OC3CCCC3)nc(N3Cc4c(cc(CNC5(C)CCC5)cc4C(F)(F)F)C3=O)c2)COC1 [Compound 294, 2-(6-(cyclopentyloxy)-4-(3-((4-methyl-4H-1,2,4-triazol-3-yl)methyl)oxetan-3-yl)pyridin-2-yl)-6-(((1-methylcyclobutyl)amino)methyl)-4-(trifluoromethyl)isoindolin-1-one] | 16 nM | 9.5 nM | (1.7x)
7 | COCC1(O)CN(Cc2cc3c(c(C(F)(F)F)c2)CN(c2cccc(C4([C@@H](F)c5nncn5C)COC4)c2)C3=O)C1 [Compound 185, (R)-2-(3-(3-(fluoro(4-methyl-4H-1,2,4-triazol-3-yl)methyl)oxetan-3-yl)phenyl)-6-((3-hydroxy-3-(methoxymethyl)azetidin-1-yl)methyl)-4-(trifluoromethyl)isoindolin-1-one] | 110 nM | 72 nM | 1.5x
8 | Cn1cnnc1[C@@H](F)C1(c2cccc(N3Cc4c(cc(CN5CC(C)(CO)C5)cc4C(F)(F)F)C3=O)c2)CC1 [Compound 125, (S)-2-(3-(1-(fluoro(4-methyl-4H-1,2,4-triazol-3-yl)methyl)cyclopropyl)phenyl)-6((3-(hydroxymethyl)-3-methylazetidin-1-yl)methyl)-4-(trifluoromethyl)isoindolin-1-one] | 240 nM | 140 nM | 1.7x
9 | Cn1cnnc1CC1(c2cc(CC3CCCC3)nc(N3Cc4c(cccc4C(F)(F)F)C3=O)c2)COC1 [Compound 292, 2-(6-(cyclopentylmethyl)-4-(3-((4-methyl-4H-1,2,4-triazol-3-yl)methyl)oxetan-3-yl)pyridin-2-yl)-4-(trifluoromethyl)isoindolin-1-one] | 5100 nM | 3400 nM | (1.5x)
10 | Cn1cnnc1[C@@H](F)C1(c2cccc(N3Cc4c(cc(CN5CC[C@H](F)C5)cc4C(F)(F)F)C3=O)c2)COC1 [Compound 83, 2-(3-(3-((S)-fluoro(4-methyl-4H-1,2,4-triazol-3-yl)methyl)oxetan-3-yl)phenyl)-6-(((S)-3-fluoropyrrolidin-1-yl)methyl)-4-(trifluoromethyl)isoindolin-1-one] | 640 nM | 210 nM | 3.1x
11 | Cn1cc(CNc2cc(C3(Cc4nncn4C)CCC3)cc(N3Cc4c(cc(CNC5(C)CCC5)cc4C(F)(F)F)C3=O)n2)cn1 [Compound 313, 2-(6-(((1-methyl-1H-pyrazol-4-yl)methyl)amino)-4-(1-((4-methyl-4H-1,2,4-triazol-3-yl)methyl)cyclobutyl)pyridin-2-yl)-6-(((1-methylcyclobutyl)amino)methyl)-4-(trifluoromethyl)isoindolin-1-one] | 23 nM | 24 nM | (0.95x)
12 | Cn1cnnc1[C@H](F)C1(c2cccc(N3Cc4c(cc(CNC5(C)CCC5)cc4C(F)F)C3=O)c2)COC1 [Compound 249, (R)-4-(difluoromethyl)-2-(3-(3-(fluoro(4-methyl-4H-1,2,4-triazol-3-yl)methyl)oxetan-3-yl)phenyl)-6-(((1-methylcyclobutyl)amino)methyl)isoindolin-1-one formate] | 20 nM | 12 nM | –
13 | Cn1cnnc1CC1(c2ccnc(N3Cc4c(cc(CNC5(C)CCC5)cc4C(F)(F)F)C3=O)c2)CCC1 [Compound 326, 2-(4-(1-((4-methyl-4H-1,2,4-triazol-3-yl)methyl)cyclobutyl)pyridin-2-yl)-6-(((1-methylcyclobutyl)amino)methyl)-4-(trifluoromethyl)isoindolin-1-one] | 16 nM | 15 nM | (1.1x)
14 | Cn1cnnc1[C@@H](F)C1(c2cccc(N3Cc4c(cc(CN)cc4C(F)(F)F)C3=O)c2)CC(F)(F)C1.O=CO [Compound 394, (S)-6-(aminomethyl)-2-(3-(3,3-difluoro-1-(fluoro(4-methyl-4H-1,2,4-triazol-3-yl)methyl)cyclobutyl)phenyl)-4-(trifluoromethyl)isoindolin-1-one formate] | 160 nM | 120 nM | (1.3x)
15 | Cn1cnnc1CC1(c2cc(CCC(C)(C)C)nc(N3Cc4c(cc(CNC5(C)CCC5)cc4C(F)(F)F)C3=O)c2)CCC1 [Compound 322, 2-(6-(3,3-dimethylbutyl)-4-(1-((4-methyl-4H-1,2,4-triazol-3-yl)methyl)cyclobutyl)pyridin-2-yl)-6-(((1-methylcyclobutyl)amino)methyl)-4-(trifluoromethyl)isoindolin-1-one] | 34 nM | 27 nM | (1.2x)
16 | Cn1cnnc1[C@@H](F)C1(c2cccc(N3Cc4c(cc(CNCCCF)cc4C(F)(F)F)C3=O)c2)CC(F)(F)C1 [Compound 448, (S)-2-(3-(3,3-difluoro-1-(fluoro(4-methyl-4H-1,2,4-triazol-3-yl)methyl)cyclobutyl)phenyl)-6-(((3-fluoropropyl)amino)methyl)-4-(trifluoromethyl)isoindolin-1-one] | 16 nM | 14 nM | (1.1x)
